Experimental data as given in US10695348B2, “Sulfonyl pyridyl TRP inhibitors” (Genentech, Inc., priority 2017, dated 2020).

Columns and labels:
human TRPA1 [1] = target: T1, human TRPA1 (Homo sapiens, UniProt O75762); experiment: Human Ca2+ MAX IC50 calcium assay; type: cell-based; conditions: for IC50: Table 5, read-out: H Ca2+ MAX (human CA2+ MAX IC50); for affinity on human TRPA1, in words: as compared to compounds 1 and 2
T1 construct: expressed in transfected cells; host or cells: CHO cells
T1 sequence (O75762 whole entry): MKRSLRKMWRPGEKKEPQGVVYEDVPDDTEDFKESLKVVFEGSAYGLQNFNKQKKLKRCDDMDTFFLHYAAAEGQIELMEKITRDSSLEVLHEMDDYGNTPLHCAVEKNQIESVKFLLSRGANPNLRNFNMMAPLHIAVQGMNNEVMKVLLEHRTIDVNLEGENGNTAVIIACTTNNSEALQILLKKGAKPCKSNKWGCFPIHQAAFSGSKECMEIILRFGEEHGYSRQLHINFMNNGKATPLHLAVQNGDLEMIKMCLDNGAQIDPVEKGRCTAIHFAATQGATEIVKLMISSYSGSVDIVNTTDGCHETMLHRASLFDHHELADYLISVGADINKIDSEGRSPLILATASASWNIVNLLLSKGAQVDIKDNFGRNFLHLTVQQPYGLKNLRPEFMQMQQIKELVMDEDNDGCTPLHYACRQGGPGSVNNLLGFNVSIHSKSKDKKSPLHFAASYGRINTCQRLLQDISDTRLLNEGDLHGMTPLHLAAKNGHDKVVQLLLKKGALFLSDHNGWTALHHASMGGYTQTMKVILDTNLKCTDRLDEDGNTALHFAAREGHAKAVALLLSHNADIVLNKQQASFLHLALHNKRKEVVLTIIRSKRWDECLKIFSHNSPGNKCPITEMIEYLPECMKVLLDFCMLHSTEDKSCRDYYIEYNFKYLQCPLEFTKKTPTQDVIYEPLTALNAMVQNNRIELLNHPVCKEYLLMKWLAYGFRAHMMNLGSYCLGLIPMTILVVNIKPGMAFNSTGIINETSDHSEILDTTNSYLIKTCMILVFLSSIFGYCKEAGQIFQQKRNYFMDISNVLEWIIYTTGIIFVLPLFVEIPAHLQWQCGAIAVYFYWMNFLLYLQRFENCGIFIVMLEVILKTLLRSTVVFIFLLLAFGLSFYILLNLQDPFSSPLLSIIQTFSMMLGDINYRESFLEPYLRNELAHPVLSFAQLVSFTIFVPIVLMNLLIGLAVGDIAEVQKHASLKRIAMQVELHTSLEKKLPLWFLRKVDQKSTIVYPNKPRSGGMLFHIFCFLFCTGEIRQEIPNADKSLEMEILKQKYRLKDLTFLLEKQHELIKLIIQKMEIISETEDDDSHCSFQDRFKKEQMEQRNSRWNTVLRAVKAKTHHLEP
Text: Human Ca2+ MAX IC50 may be measured using one of the commercially available calcium assay kits provided by Molecular Devices, Abcam, Bio-Rad, Biovision, Enzo Lifesciences, Abnova, Sigma-Aldrich, or others.

[2] = Human liver microsome clearance / stability; type: in vitro ADME; conditions: for HLM clearance, in words: as compared to compounds 1 and 2; for HLM (human liver microsome stability): human liver microsomes, Table 5
Text: Human liver microsome clearance (mL/min/kg) may be measured according to the method described by Ackley et al, “Metabolic Stability Assessed by Liver Microsomes and Hepatocytes”, in “Optimization in Drug Discovery” in the “Methods in Pharmacology and Toxicology” series (ISSN 1557-2153), pp. 151-162 (Yan, Ed., Print ISBN 978-1-58829-332-9, Springer (2004), as well as by using commercially available assay kits by Cerep, Cyprotex, Bd Bioscience and others.
Human liver microsome HLM stability may be measured as using the procedure of Ackley et al. as described above.

human TRPA1 [3] = target: T1, human TRPA1; experiment: FLIPR Tetra calcium influx assay, CHO cells expressing TRPA1, cinnamaldehyde agonist (hTRPA1 CHO Ca2+ AUC EVO); type: cell-based; conditions: CHO cells expressing human TRPA1; 75 uM cinnamaldehyde; Hill coefficient fixed to 1.5; read-out: hTRPA1 IC50 (hTRPA1 CHO Ca2+ AUC EVO (IC50))
Description: The IC50 ([…]) of compounds on the human and rat TRPA1 channels were determined using a FLIPR Tetra instrument. CHO cells expressing TRPA1 were plated into 384-well plates, incubated overnight at 37° C., and loaded with BD calcium indicator dye for 1 hr at 37° C. followed by 15 minutes at room temperature. The assay buffer was Hank's Balanced Salt Solution (HBSS) containing 20 mM HEPES (pH readjusted to 7.4) along with 0.02% BSA.
Following dye load and plate cool down, compounds were added to the cells using FLIPR Tetra. Plates were then incubated with compounds for 20 minutes at room temperature prior to adding agonist. Following this incubation, about an EC80 concentration of cinnamaldehyde (75 uM for human TRPA1 and 45 uM for rat TRPA1) was added to active the channels and block of cinnamaldehyde induced calcium influx was measured.
The IC50 results were fit with a standard Hill function, keeping the Hill coefficient (n) fixed to 1.5. Fixing the Hill coefficient will generally reduce variability of the IC50 determination. The IC50 results were individually examined to make sure the MIN and MAX points were set correctly prior to validation of the results.

Structure (SMILES)	IC50 (human TRPA1 [3]) [nM]	further results
C[C@H]1[C@H](F)C[C@@H](C(=O)NCc2cc(-c3cnc(C(F)(F)F)nc3)ncc2C(F)(F)F)N1S(=O)(=O)c1ccncc1 [Compound 6]	–	IC50 (human TRPA1 [1]): 638 nM; affinity on human TRPA1, in words (human TRPA1 [1]): low affinity; HLM clearance, in words [2]: relatively high HLM clearance; HLM (human liver microsome stability) [2]: 19 mL/min/kg
C[C@H]1[C@H](F)C[C@@H](C(=O)NCc2cc(-c3cnc(C(F)(F)F)nc3)ncc2C(F)(F)F)N1S(=O)(=O)c1ccc(C#N)nc1 [Compound 4]	–	IC50 (human TRPA1 [1]): 41 nM; affinity on human TRPA1, in words (human TRPA1 [1]): low affinity; HLM (human liver microsome stability) [2]: 3.7 mL/min/kg
C[C@H]1[C@H](F)C[C@@H](C(=O)NCc2cc(-c3cnc(C(F)(F)F)nc3)ncc2C(F)(F)F)N1S(=O)(=O)c1ccc(C#N)cn1 [[8], (2S,4R,5S)-1-(5-cyanopyridin-2-ylsulfonyl)-4-fluoro-5-methyl-N-((5-(trifluoromethyl)-2-(2-(trifluoromethyl)pyrimidin-5-yl)pyridin-4-yl)methyl)pyrrolidine-2-carboxamide]	73.5	–
C[C@H]1[C@H](F)C[C@@H](C(=O)NCc2cc(-c3cnc(C(F)(F)F)nc3)ccc2C#N)N1S(=O)(=O)c1ccc(F)cn1 [[10], (2S,4R,5S)—N-(2-cyano-5-(2-(trifluoromethyl)pyrimidin-5-yl)benzyl)-4-fluoro-1-(5-fluoropyridin-2-ylsulfonyl)-5-methylpyrrolidine-2-carboxamide]	66.9	–
C[C@H]1[C@H](F)C[C@@H](C(=O)NCc2cc(-c3cnc(C(F)(F)F)nc3)ncc2C#N)N1S(=O)(=O)c1ccc(F)cn1 [[13], (2S,4R,5S)—N-((5-cyano-2-(2-(trifluoromethyl)pyrimidin-5-yl)pyridin-4-yl)methyl)-4-fluoro-1-(5-fluoropyridin-2-ylsulfonyl)-5-methylpyrrolidine-2-carboxamide]	89.8	–
C[C@H]1[C@H](F)C[C@@H](C(=O)NCc2cc(-c3cnc(C(F)(F)F)nc3)ncc2Cl)N1S(=O)(=O)c1ccc(F)cn1 [[9], (2S,4R,5S)—N-((5-chloro-2-(2-(trifluoromethyl)pyrimidin-5-yl)pyridin-4-yl)methyl)-4-fluoro-1-(5-fluoropyridin-2-ylsulfonyl)-5-methylpyrrolidine-2-carboxamide]	16.7	–
C[C@H]1[C@H](F)C[C@@H](C(=O)NCc2cc(-c3cnc(C(F)(F)F)nc3)cnc2C(F)F)N1S(=O)(=O)c1ccc(F)cn1 [[14], (2S,4R,5S)—N-((2-(difluoromethyl)-5-(2-(trifluoromethyl)pyrimidin-5-yl)pyridin-3-yl)methyl)-4-fluoro-1-(5-fluoropyridin-2-ylsulfonyl)-5-methylpyrrolidine-2-carboxamide]	75.1	–
C[C@H]1[C@H](F)C[C@@H](C(=O)NCc2cc(-c3cnc(C(F)(F)F)nc3)ncc2C(F)(F)F)N1S(=O)(=O)c1cc2cnccc2o1 [[5], (2S,4R,5S)-4-fluoro-1-furo[3,2-c]pyridin-2-ylsulfonyl-5-methyl-N-[[5-(trifluoromethyl)-2-[2-(trifluoromethyl)pyrimidin-5-yl]-4-pyridyl]methyl]pyrrolidine-2-carboxamide]	1.91	–
C[C@H]1[C@H](F)C[C@@H](C(=O)NCc2cc(-c3cnc(C(F)(F)F)nc3)ncc2C(F)(F)F)N1S(=O)(=O)c1ccc(F)cn1 [[1], (2S,4R,5S)-4-fluoro-1-[(5-fluoro-2-pyridyl)sulfonyl]-5-methyl-N-[[5-(trifluoromethyl)-2-[2-(trifluoromethyl)pyrimidin-5-yl]-4-pyridyl]methyl]pyrrolidine-2-carboxamide]	2.69	–
C[C@H]1[C@H](F)C[C@@H](C(=O)NCc2cc(-c3cnc(C(F)(F)F)nc3)ncc2OC(F)(F)F)N1S(=O)(=O)c1ccc(F)cn1 [[11], (2S,4R,5S)-4-fluoro-1-(5-fluoropyridin-2-ylsulfonyl)-5-methyl-N-((5-(trifluoromethoxy)-2-(2-(trifluoromethyl)pyrimidin-5-yl)pyridin-4-yl)methyl)pyrrolidine-2-carboxamide]	6.73	–
C[C@H]1[C@H](F)C[C@@H](C(=O)NCc2cc(-c3cnc(C(F)(F)F)nc3)ncc2C(F)(F)F)N1S(=O)(=O)c1cc2c(Cl)nccc2o1 [[4], (2S,4R,5S)-1-(4-chlorofuro[3,2-c]pyridin-2-yl)sulfonyl-4-fluoro-5-methyl-N-[[5-(trifluoromethyl)-2-[2-(trifluoromethyl)pyrimidin-5-yl]-4-pyridyl]methyl]pyrrolidine-2-carboxamide]	0.634	–
C[C@H]1[C@H](F)C[C@@H](C(=O)NCc2cc(-c3cnc(C(F)(F)F)nc3)ncc2C(F)(F)F)N1S(=O)(=O)c1cncc(F)c1 [Compound 3]	–	IC50 (human TRPA1 [1]): 21 nM; HLM clearance, in words [2]: relatively high HLM clearance; HLM (human liver microsome stability) [2]: 19 mL/min/kg
C[C@H]1[C@H](F)C[C@@H](C(=O)NCc2cc(-c3cnc(C(F)(F)F)nc3)ncc2C(F)(F)F)N1S(=O)(=O)c1ccc(Cl)cn1 [[6], (2S,4R,5S)-1-[(5-chloro-2-pyridyl)sulfonyl]-4-fluoro-5-methyl-N-[[5-(trifluoromethyl)-2-[2-(trifluoromethyl)pyrimidin-5-yl]-4-pyridyl]methyl]pyrrolidine-2-carboxamide]	2.16	–
C[C@H]1[C@H](F)C[C@@H](C(=O)NCc2cc(-c3cnc(C(F)(F)F)nc3)ncc2C(F)(F)F)N1S(=O)(=O)c1ccc(Cl)cn1 [Compound 2]	–	IC50 (human TRPA1 [1]): 6 nM; HLM (human liver microsome stability) [2]: 6.1 mL/min/kg
C[C@H]1[C@H](F)C[C@@H](C(=O)NCc2cc(-c3cnc(C(F)(F)F)nc3)ncc2C(F)(F)F)N1S(=O)(=O)c1ccc(F)cn1 (single isomer, unassigned) [Compound 1]	–	IC50 (human TRPA1 [1]): 8 nM; HLM (human liver microsome stability) [2]: 4.1 mL/min/kg
C[C@H]1[C@H](F)C[C@@H](C(=O)NCc2cc(-c3cnc(C(F)(F)F)nc3)ncc2C(F)(F)F)N1S(=O)(=O)c1cccnc1 [[2], (2S,4R,5S)-4-fluoro-5-methyl-1-(3-pyridylsulfonyl)-N-[[5-(trifluoromethyl)-2-[2-(trifluoromethyl)pyrimidin-5-yl]-4-pyridyl]methyl]pyrrolidine-2-carboxamide]	32	–
C[C@H]1[C@H](F)C[C@@H](C(=O)NCc2cc(-c3cnc(C(F)(F)F)nc3)cnc2C(F)(F)F)N1S(=O)(=O)c1ccc(F)cn1 [[15], (2S,4R,5S)-4-fluoro-1-(5-fluoropyridin-2-ylsulfonyl)-5-methyl-N-((2-(trifluoromethyl)-5-(2-(trifluoromethyl)pyrimidin-5-yl)pyridin-3-yl)methyl)pyrrolidine-2-carboxamide]	47.7	–
C[C@H]1[C@H](F)C[C@@H](C(=O)NCc2cc(-c3cnc(C(F)(F)F)nc3)ncc2F)N1S(=O)(=O)c1ccc(F)cn1 [[12], (2S,4R,5S)-4-fluoro-N-((5-fluoro-2-(2-(trifluoromethyl)pyrimidin-5-yl)pyridin-4-yl)methyl)-1-(5-fluoropyridin-2-ylsulfonyl)-5-methylpyrrolidine-2-carboxamide]	103	–
C[C@H]1[C@H](F)C[C@@H](C(=O)NCc2cc(-c3cnc(C(F)(F)F)nc3)ncc2C(F)(F)F)N1S(=O)(=O)c1ncccc1F [[7], (2S,4R,5S)-4-fluoro-1-[(3-fluoro-2-pyridyl)sulfonyl]-5-methyl-N-[[5-(trifluoromethyl)-2-[2-(trifluoromethyl)pyrimidin-5-yl]-4-pyridyl]methyl]pyrrolidine-2-carboxamide]	633	–
C[C@H]1[C@H](F)C[C@@H](C(=O)NCc2cc(-c3cnc(C(F)(F)F)nc3)ncc2C(F)(F)F)N1S(=O)(=O)c1cncc(Cl)c1 [[3], (2S,4R,5S)-1-[(5-chloro-3-pyridyl)sulfonyl]-4-fluoro-5-methyl-N-[[5-(trifluoromethyl)-2-[2-(trifluoromethyl)pyrimidin-5-yl]-4-pyridyl]methyl]pyrrolidine-2-carboxamide]	3.09	–
